Laboratory results from patent US8637537B2, “Serine/threonine kinase inhibitors” (Genentech, Inc., priority 2011, dated 2014).
Counter-ions that a name gives are not always drawn.

Target: T1, human recombinant GST-PAK1-KD protein (Homo sapiens, UniProt Q13153)
T1 construct: residues #249-545 of human PAK1, UniProtKP/Swiss Q13153; His6 (N); made in house; host or cells: Sf9 insect cells, pAcGP67 baculovirus expression vector
Test: GST-PAK1-KD (kinase domain) biochemical assay, microfluidic mobility shift
Settings: not given
Method: Activity of human recombinant GST-PAK1-KD protein was assessed in vitro assay by observing the phosphorylation of a fluorogenic peptide substrate.
The peptide substrate is a consensus sequence based on various PAK1 substrates reported in the scientific literature. […] Incubations were carried out at 22° C. in MatriCal MP101 384-well Metriplates™. […] Following the 30-minute incubation, the assay mixtures were quenched by the addition of 3 μL of 250 mM EDTA, and the substrate and phosphorylated product were separated by capillary electrophoresis and detected using LabChip® Caliper 3000 (Caliper Life Sciences).

T1 sequence (Q13153 249-545): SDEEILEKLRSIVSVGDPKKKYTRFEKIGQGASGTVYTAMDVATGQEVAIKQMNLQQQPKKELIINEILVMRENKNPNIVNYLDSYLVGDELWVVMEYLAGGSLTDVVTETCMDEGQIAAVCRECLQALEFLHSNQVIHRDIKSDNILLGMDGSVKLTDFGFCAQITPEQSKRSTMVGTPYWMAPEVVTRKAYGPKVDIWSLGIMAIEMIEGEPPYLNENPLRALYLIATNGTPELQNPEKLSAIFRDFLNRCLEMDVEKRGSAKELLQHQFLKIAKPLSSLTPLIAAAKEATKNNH

Compound | Ki [nM]
CN(Cc1ccc2[nH]cnc2c1Cl)c1nccc(Nc2cc(C3CC3)[nH]n2)n1 [I-87, N^2-((4-chloro-1H-benzo[d]imidazol-5-yl)methyl)-N^4-(5-cyclopropyl-1H-pyrazol-3-yl)-N^2-methylpyrimidine-2,4-diamine] | < 50

Same assay, conditions: Table I, PAK1 Ki class; read-out: Ki

Compound | Ki [nM]
C[C@H](Nc1nccc(Nc2cc([C@H]3C[C@H]3F)[nH]n2)n1)c1ccc2[nH]cnc2c1 [I-68, N^2—((S)-1-(1H-benzo[d]imidazol-5-yl)ethyl)-N^4-(5-((1R,2R)-2-fluorocyclopropyl)-1H-pyrazol-3-yl)pyrimidine-2,4-diamine] | < 50
C[C@H](Nc1nccc(Nc2cc([C@@H]3C[C@H]3F)[nH]n2)n1)c1ccc2[nH]cnc2c1 [I-69, N^2—((S)-1-(1H-benzo[d]imidazol-5-yl)ethyl)-N^4-(5-((1S,2R)-2-fluorocyclopropyl)-1H-pyrazol-3-yl)pyrimidine-2,4-diamine] | < 50
C[C@H](Nc1nccc(Nc2cc([C@H]3C[C@@H]3F)[nH]n2)n1)c1ccc2[nH]cnc2c1 [I-70, N^2—((S)-1-(1H-benzo[d]imidazol-5-yl)ethyl)-N^4-(5-((1R,2S)-2-fluorocyclopropyl)-1H-pyrazol-3-yl)pyrimidine-2,4-diamine] | < 50
CCN(Cc1ccc2[nH]cnc2c1)c1nccc(Nc2cc(C3CC3)[nH]n2)n1 [I-71, N^2-((1H-benzo[d]imidazol-5-yl)methyl)-N^4-(5-cyclopropyl-1H-pyrazol-3-yl)-N^2-ethylpyrimidine-2,4-diamine] | < 50
C[C@H](Nc1nccc(Nc2cc([C@@H]3C[C@H]3F)[nH]n2)n1)c1ccc2[nH]ccc2c1 [I-72, N^2—((S)-1-(1H-indol-5-yl)ethyl)-N^4-(5-((1S,2R)-2-fluorocyclopropyl)-1H-pyrazol-3-yl)pyrimidine-2,4-diamine] | < 50
C[C@H](Nc1nccc(Nc2cc([C@H]3C[C@@H]3F)[nH]n2)n1)c1ccc2[nH]ccc2c1 [I-73, N^2—((S)-1-(1H-indol-5-yl)ethyl)-N^4-(5-((1R,2S)-2-fluorocyclopropyl)-1H-pyrazol-3-yl)pyrimidine-2,4-diamine] | < 50
FC1(F)C[C@H]1c1cc(Nc2ccnc(NCc3ccc4[nH]cnc4c3Cl)n2)n[nH]1 [I-74, (S)—N^2-((4-chloro-1H-benzo[d]imidazol-5-yl)methyl)-N^4-(5-(2,2-difluorocyclopropyl)-1H-pyrazol-3-yl)pyrimidine-2,4-diamine] | < 50
FC1(F)C[C@@H]1c1cc(Nc2ccnc(NCc3ccc4[nH]cnc4c3Cl)n2)n[nH]1 [I-75, (R)—N^2-((4-chloro-1H-benzo[d]imidazol-5-yl)methyl)-N^4-(5-(2,2-difluorocyclopropyl)-1H-pyrazol-3-yl)pyrimidine-2,4-diamine] | < 50
F[C@H]1C[C@H]1c1cc(Nc2ccnc(NCc3ccc4[nH]cnc4c3Cl)n2)n[nH]1 [I-76, N^2-((4-chloro-1H-benzo[d]imidazol-5-yl)methyl)-N^4-(5-((1S,2S)-2-fluorocyclopropyl)-1H-pyrazol-3-yl)pyrimidine-2,4-diamine] | < 50
F[C@@H]1C[C@@H]1c1cc(Nc2ccnc(NCc3ccc4[nH]cnc4c3Cl)n2)n[nH]1 [I-77, N^2-((4-chloro-1H-benzo[d]imidazol-5-yl)methyl)-N^4-(5-((1R,2R)-2-fluorocyclopropyl)-1H-pyrazol-3-yl)pyrimidine-2,4-diamine] | < 50
F[C@@H]1C[C@H]1c1cc(Nc2ccnc(NCc3ccc4[nH]cnc4c3Cl)n2)n[nH]1 [I-78, N^2-((4-chloro-1H-benzo[d]imidazol-5-yl)methyl)-N^4-(5-((1S,2R)-2-fluorocyclopropyl)-1H-pyrazol-3-yl)pyrimidine-2,4-diamine] | < 50
F[C@H]1C[C@@H]1c1cc(Nc2ccnc(NCc3ccc4[nH]cnc4c3Cl)n2)n[nH]1 [I-79, N^2-((4-chloro-1H-benzo[d]imidazol-5-yl)methyl)-N^4-(5-((1R,2S)-2-fluorocyclopropyl)-1H-pyrazol-3-yl)pyrimidine-2,4-diamine] | < 50
FC1(F)CC1c1cc(Nc2ccnc(NCc3cccc4[nH]ccc34)n2)n[nH]1 (stereo not shown) [I-82, N2—((1H-indol-4-yl)methyl)-N4-(5-(2,2-difluorocyclopropyl)-1H-pyrazol-3-yl)pyrimidine-2,4-diamine] | < 50
C[C@H](Nc1nc(Nc2cc(C3CC3)[nH]n2)cc(C(C)(C)O)n1)c1ccc2[nH]ccc2c1 [I-83, (S)-2-(2-(1-(1H-indol-5-yl)ethylamino)-6-(5-cyclopropyl-1H-pyrazol-3-ylamino)pyrimidin-4-yl)propan-2-ol] | < 50
CC(C)(O)c1cc(Nc2cc(C3CC3)[nH]n2)nc(NCc2ccc3[nH]cnc3c2Cl)n1 [I-84, 2-(2-((4-chloro-1H-benzo[d]imidazol-5-yl)methylamino)-6-(5-cyclopropyl-1H-pyrazol-3-ylamino)pyrimidin-4-yl)propan-2-ol] | < 50
CC(C)(O)c1cc(Nc2cc(C3CC3)[nH]n2)nc(NCc2cccc3[nH]ccc23)n1 [I-85, 2-(2-((1H-indol-4-yl)methylamino)-6-(5-cyclopropyl-1H-pyrazol-3-ylamino)pyrimidin-4-yl)propan-2-ol] | 50 to 250
CN(Cc1ccc2[nH]cnc2c1Cl)c1ncc(F)c(Nc2cc(C3CC3)[nH]n2)n1 [I-86, N^2-((4-chloro-1H-benzo[d]imidazol-5-yl)methyl)-N^4-(5-cyclopropyl-1H-pyrazol-3-yl)-5-fluoro-N^2-methylpyrimidine-2,4-diamine] | < 50
Fc1cc(CNc2nccc(Nc3cc(C4CCC4)[nH]n3)n2)c2cc[nH]c2c1 [I-88, N^4-(5-Cyclobutyl-1H-pyrazol-3-yl)-N^2-((6-fluoro-1H-indol-4-yl)methyl)pyrimidine-2,4-diamine Formate] | < 50
Cc1cc(Nc2cc(C3CC3)[nH]n2)nc(NCc2cc(F)cc3[nH]ccc23)n1 [I-89, N^4-(5-Cyclopropyl-1H-pyrazol-3-yl)-N^2-((6-fluoro-1H-indol-4-yl)methyl)-6-methylpyrimidine-2,4-diamine Formate] | 250 to 1000
Fc1cc(CNc2ncc(F)c(Nc3cc(C4CCC4)[nH]n3)n2)c2cc[nH]c2c1 [I-90, N^4-(5-Cyclobutyl-1H-pyrazol-3-yl)-5-fluoro-N^2-((6-fluoro-1H-indol-4-yl)methyl)pyrimidine-2,4-diamine formate] | 250 to 1000
Fc1cc(CNc2ncc(F)c(Nc3cc(C4CC4)[nH]n3)n2)c2cc[nH]c2c1 [I-91, N^4-(5-Cyclopropyl-1H-pyrazol-3-yl)-5-fluoro-N^2-((6-fluoro-1H-indol-4-yl)methyl)pyrimidine-2,4-diamine diformate] | 250 to 1000
Cc1c[nH]c2cccc(CNc3nccc(Nc4cc(C5CC5)[nH]n4)n3)c12 [I-92, N^4-(5-Cyclopropyl-1H-pyrazol-3-yl)-N^2-((3-methyl-1H-indol-4-yl)methyl)pyrimidine-2,4-diamine] | < 50
Clc1cc2[nH]ccc2cc1CNc1nccc(Nc2cc(C3CC3)[nH]n2)n1 [I-93, N^2-((6-Chloro-1H-indol-5-yl)methyl)-N^4 (5-cyclopropyl-1H-pyrazol-3-yl)pyrimidine-2,4-diamine] | 50 to 250
Clc1cc2[nH]cnc2cc1CNc1nccc(Nc2cc(C3CC3)[nH]n2)n1 [I-94, N^2-((6-chloro-1H-benzo[d]imidazol-5-yl)methyl)-N^4-(5-cyclopropyl-1H-pyrazol-3-yl)-pyrimidine-2,4-diamine] | 50 to 250
